Measurements reported in ChEMBL document CHEMBL1201862, “PubChem BioAssay data set” (2004).
One block for each compound: values may come before it. Calls of active or inactive are those of the source.

Key:
[1] = reduction of Shn3 3'UTR-driven luciferase in osteoblasts – cell-based, Clone20 osteoblasts, firefly luciferase, cherry-picked, dose response (AID 624132); assay type: functional;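 note: firefly luciferase luminescence from reporter carrying the Shn3 3'UTR in osteoblasts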
[2] = loss of viability in HepG2 cells – cell-based, CellTiter-Glo, cherry-picked, cytotoxicity control for Shn3 inhibitor project, dose response (AID 624134); assay type: functional
[3] = non-specific 3'UTR reporter inhibition in Clone20-Shn3RL – cell-based, Renilla luciferase, cherry-picked, counter-screen for Shn3 inhibitor project, dose response (AID 624133); assay type: functional
[4] = Luminescence Cell-Based Dose Confirmation HTS to Identify Inhibitors of Platelet Dense Granule Release. [Related pubchem assays: 1663 (Primary HTS), 1678 (Summary of Project)]; assay type: functional
[5] = target: Luciferin 4-monooxygenase (Photinus pyralis, UniProt P08659); test: inhibition of purified Photinus pyralis luciferase – biochemical, luminescence, dose response (AID 1891)
Luciferin 4-monooxygenase, sequence (P08659 whole entry, the tested form may be a part): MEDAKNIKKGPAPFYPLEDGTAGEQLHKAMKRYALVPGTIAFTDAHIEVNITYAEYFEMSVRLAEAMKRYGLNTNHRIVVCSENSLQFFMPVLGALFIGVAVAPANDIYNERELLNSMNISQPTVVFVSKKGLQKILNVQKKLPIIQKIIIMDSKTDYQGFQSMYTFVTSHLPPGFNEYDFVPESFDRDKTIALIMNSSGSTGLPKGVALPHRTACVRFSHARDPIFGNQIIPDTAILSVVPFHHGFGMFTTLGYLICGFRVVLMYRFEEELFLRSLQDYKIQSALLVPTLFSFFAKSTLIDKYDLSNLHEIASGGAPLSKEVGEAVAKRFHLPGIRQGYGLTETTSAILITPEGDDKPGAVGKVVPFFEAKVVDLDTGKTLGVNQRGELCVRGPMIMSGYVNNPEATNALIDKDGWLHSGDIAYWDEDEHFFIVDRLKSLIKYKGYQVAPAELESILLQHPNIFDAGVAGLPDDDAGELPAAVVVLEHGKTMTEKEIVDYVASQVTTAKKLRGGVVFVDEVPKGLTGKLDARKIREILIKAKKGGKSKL

[6] = target: T1, RNA-binding protein pos-1 (Caenorhabditis elegans, UniProt G5EF15); test: disruptors of C. elegans POS-1 RNA interaction – biochemical, fluorescence polarization, dose response (AID 1964);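 note: purified POS-1 fused to maltose binding protein made in E. coli; potency of compounds blocking POS-1 binding to fluorescent RNA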
T1 sequence (G5EF15 whole entry): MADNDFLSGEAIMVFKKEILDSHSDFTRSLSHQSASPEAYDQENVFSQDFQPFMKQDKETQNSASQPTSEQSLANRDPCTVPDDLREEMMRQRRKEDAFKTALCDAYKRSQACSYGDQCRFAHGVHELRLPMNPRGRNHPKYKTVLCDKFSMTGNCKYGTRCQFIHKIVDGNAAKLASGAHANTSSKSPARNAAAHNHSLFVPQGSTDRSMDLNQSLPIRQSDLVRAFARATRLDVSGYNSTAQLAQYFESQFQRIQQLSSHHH

[7] = target: T2, Protein skinhead-1 (Caenorhabditis elegans, UniProt P34707); assay type: functional
T2 sequence (P34707 whole entry): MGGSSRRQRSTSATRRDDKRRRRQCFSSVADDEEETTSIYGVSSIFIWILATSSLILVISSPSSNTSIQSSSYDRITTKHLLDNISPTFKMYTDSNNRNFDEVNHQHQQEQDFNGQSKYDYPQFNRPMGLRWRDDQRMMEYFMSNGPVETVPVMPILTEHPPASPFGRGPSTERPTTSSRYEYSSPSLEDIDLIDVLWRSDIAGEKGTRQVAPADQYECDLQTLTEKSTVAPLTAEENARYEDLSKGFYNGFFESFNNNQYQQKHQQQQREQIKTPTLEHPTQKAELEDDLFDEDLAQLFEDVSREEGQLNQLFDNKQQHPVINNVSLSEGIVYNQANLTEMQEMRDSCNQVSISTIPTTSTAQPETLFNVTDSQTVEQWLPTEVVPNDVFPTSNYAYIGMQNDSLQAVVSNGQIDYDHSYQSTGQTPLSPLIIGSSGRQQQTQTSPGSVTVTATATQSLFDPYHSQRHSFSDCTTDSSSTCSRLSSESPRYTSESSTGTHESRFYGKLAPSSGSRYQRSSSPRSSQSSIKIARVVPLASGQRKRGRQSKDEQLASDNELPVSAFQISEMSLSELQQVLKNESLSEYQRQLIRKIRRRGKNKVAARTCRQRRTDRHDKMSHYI

[8] = viability of HCT116 lacking mutant beta-catenin – cell-based, human colon tumor, dose response (AID 1045); assay type: functional;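 note: HCT116 colon tumor cells with beta catenin knocked out; cells exposed to compound for 60 hours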
[9] = cells; assay type: functional, cell-based
[10] = cells; assay type: functional, cell-based; remark: listed apart in the source
[11] = viability of PTEN-deleted HCT116 cells – cell-based, HCT116 PTEN knockout, dose response (AID 1047); assay type: functional;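 note: HCT116 colon tumor cells with PTEN knocked out; cells exposed to compound for 60 hours before readout; potency for loss of cell viability measured by luminescence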
[12] = target: T3, Calpain-2 catalytic subunit (Sus scrofa, UniProt P43367); test: m-calpain protease blockers, concentration series – biochemical, fluorogenic peptide substrate, dose response (AID 1420); assay type: functional
T3 sequence (P43367 whole entry): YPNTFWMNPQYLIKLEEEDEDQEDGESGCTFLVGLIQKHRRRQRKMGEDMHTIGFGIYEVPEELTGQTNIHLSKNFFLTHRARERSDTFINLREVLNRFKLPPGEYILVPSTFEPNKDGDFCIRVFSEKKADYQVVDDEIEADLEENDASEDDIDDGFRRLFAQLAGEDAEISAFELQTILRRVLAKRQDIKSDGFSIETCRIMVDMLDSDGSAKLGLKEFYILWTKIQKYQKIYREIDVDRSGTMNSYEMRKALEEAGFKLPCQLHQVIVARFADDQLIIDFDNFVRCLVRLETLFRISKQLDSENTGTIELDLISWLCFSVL

[13] = target: Cytochrome P450 2C9 (Homo sapiens, UniProt P11712)
Cytochrome P450 2C9, sequence (P11712 whole entry): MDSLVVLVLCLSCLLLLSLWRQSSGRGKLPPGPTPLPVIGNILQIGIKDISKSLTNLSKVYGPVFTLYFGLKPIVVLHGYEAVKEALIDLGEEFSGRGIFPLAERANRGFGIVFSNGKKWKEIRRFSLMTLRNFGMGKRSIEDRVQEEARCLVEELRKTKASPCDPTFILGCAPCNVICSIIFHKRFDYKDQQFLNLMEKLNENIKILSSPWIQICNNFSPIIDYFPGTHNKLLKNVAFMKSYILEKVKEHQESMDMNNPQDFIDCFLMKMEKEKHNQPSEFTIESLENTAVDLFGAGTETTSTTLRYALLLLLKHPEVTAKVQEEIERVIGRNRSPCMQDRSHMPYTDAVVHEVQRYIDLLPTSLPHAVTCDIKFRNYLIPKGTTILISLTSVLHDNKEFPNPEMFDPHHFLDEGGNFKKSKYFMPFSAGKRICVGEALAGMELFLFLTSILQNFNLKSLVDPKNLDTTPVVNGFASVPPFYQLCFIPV

[14] = target: T4, Cytochrome P450 1A2 (Homo sapiens, UniProt P05177);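 note: PubChem cytochrome P450 panel assay, CYP1A2 panel member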
T4 sequence (P05177 whole entry): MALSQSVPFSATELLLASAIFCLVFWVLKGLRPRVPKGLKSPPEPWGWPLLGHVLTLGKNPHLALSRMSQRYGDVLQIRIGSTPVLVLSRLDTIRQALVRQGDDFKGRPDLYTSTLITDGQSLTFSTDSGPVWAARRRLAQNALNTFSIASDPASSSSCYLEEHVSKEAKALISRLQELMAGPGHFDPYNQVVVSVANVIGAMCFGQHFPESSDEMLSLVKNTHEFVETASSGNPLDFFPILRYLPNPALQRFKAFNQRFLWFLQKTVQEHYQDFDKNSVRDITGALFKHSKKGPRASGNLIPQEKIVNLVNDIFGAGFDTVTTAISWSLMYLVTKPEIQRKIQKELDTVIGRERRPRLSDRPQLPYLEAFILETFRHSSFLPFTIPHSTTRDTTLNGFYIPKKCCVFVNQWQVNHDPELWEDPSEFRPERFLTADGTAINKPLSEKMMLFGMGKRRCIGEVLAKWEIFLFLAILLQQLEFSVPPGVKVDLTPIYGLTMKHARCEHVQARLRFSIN

[15] = blockers of HIV-1 envelope-mediated cell-cell fusion – cherry-pick, dose response (AID 652057); assay type: functional, cell-based
[16] = HIV-1 AD8 envelope cell-cell fusion blockers – cherry-pick, dose response (AID 652062); assay type: functional, cell-based;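 note: luciferase signal from cell-cell fusion driven by HIV-1 clade B AD8 Env; potency is for inhibitors of fusion seen as a drop in luminescence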
[17] = Trypanosoma cruzi growth suppression in host cells – NIH3T3 host cells, beta-gal luminescence, confirmation (AID 2044); assay type: functional, cell-based;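 note: intracellular parasites grown in NIH/3T3 mouse fibroblasts as host cells; luminescent beta-galactosidase reporter signal from transgenic T. cruzi replicating inside host cells; inhibitors lower the luminescence signal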
[18] = NIH3T3 cell viability loss – ATP luminescence, mouse fibroblasts, counter-screen, dose response (AID 2010); assay type: functional, cell-based;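 note: cells exposed to compound for about 90 hours before reading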
[19] = target: T5, Heat shock factor protein 1 (Mus musculus, UniProt P38532); test: decrease of HSF1-responsive luciferase luminescence – cell-based, NIH3T3, dose retest, confirmation (AID 2382); assay type: functional;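 note: NIH3T3 fibroblasts with HSF1-driven luciferase reporter stressed by proteasome inhibitor MG132; luminescence from HSF1-driven luciferase expression after 8 hours of MG132 stress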
T5 sequence (P38532 whole entry): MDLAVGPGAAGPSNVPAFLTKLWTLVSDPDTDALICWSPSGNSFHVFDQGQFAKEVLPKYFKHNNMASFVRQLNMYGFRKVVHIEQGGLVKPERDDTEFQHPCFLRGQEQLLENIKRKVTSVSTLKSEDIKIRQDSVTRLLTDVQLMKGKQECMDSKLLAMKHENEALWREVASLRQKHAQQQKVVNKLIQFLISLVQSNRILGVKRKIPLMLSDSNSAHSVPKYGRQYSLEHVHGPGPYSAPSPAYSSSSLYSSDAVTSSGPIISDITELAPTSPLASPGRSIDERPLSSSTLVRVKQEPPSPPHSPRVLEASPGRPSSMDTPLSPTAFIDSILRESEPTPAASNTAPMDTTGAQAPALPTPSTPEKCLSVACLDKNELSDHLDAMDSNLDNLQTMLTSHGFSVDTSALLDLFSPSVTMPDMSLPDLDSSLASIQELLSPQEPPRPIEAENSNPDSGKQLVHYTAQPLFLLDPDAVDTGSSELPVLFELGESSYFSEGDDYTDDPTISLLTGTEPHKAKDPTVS

[20] = target: Cytochrome P450 3A4 (Homo sapiens, UniProt P08684);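 note: CYP3A4 tested as one member of a cytochrome P450 panel screen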
Cytochrome P450 3A4, sequence (P08684 whole entry): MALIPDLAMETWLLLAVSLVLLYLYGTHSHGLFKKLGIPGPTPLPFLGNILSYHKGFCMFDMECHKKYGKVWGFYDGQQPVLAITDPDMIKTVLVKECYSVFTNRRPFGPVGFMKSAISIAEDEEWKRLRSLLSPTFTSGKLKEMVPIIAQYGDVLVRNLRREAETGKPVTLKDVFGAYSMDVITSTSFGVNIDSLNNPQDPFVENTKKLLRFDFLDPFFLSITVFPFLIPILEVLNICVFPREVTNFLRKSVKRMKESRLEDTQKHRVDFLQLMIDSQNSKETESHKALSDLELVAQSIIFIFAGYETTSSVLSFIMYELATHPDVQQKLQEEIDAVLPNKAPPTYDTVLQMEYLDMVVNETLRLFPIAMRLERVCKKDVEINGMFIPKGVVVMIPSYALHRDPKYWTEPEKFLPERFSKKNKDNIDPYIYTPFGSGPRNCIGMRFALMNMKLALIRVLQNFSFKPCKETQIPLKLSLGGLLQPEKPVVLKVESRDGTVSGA

[21] = target: Cytochrome P450 2C19 (Homo sapiens, UniProt P33261); test: Cytochrome panel assay with activity outcomes. Panel member name: p450-cyp2c19 Compounds with AC50 equal or less than 10 uM are considered active; assay type: functional; settings: read-out: AC50
Cytochrome P450 2C19, sequence (P33261 whole entry): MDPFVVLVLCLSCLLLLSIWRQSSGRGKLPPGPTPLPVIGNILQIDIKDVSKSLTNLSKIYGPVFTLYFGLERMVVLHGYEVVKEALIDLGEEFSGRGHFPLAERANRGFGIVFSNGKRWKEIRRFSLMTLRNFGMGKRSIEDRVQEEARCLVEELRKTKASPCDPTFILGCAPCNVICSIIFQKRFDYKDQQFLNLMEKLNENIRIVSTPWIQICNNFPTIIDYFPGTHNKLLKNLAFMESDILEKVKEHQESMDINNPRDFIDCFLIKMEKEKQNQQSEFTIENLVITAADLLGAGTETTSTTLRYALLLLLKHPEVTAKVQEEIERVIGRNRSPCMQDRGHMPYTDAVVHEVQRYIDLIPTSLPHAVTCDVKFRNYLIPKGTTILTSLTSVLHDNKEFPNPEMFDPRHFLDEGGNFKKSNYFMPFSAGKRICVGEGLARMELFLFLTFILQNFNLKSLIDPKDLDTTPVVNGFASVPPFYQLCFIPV

- EC50 [6]: > 300 µM (not active)
Compound: O=C(O)COc1ccc(/C=C/c2n[nH]c(-c3ccccc3O)n2)cc1

- IC50 [7]: > 100 µM (inactive)
Compound: COc1cccc(NC(=O)C(C)Oc2ccccc2)c1 (stereo not drawn)

- IC50 [12]: > 50 µM (not active)
Compound: COc1ccccc1CN(C)CC(=O)Nc1ccc(Cl)cc1F

- IC50 [7]: > 100 µM (inactive)
Compound: CCN(CC)S(=O)(=O)c1ccc2c(c1)nc(SC(C)C(N)=O)n2-c1ccc(OC)cc1 (stereo not drawn)

- IC50 [7]: 51.6 µM (inactive)
Compound: Clc1ccc(-c2nnc(-c3ccccc3)o2)c(Cl)c1

- IC50 [12]: < 0.4 µM (not active)
Compound: O=C(COc1cccc2cccnc12)NNC(=O)Nc1ccccc1

- AC50 [14]: 25.1 µM (inconclusive)
- AC50 [13]: inconclusive
Compound: COC(=O)CN(c1ccccn1)S(=O)(=O)c1ccccc1

- IC50 [12]: 6.17 µM (not active)
Compound: O=C(NCCc1nnc2ccc(NCc3ccc(Cl)cc3)nn12)c1ccccc1

- AC50 [13]: inconclusive
Compound: CNc1nc(C)cc(C)c1S(=O)(=O)c1ccc(C)cc1

- IC50 [12]: 3.87 µM (not active)
- EC50 [19]: > 195 µM (not active)
Compound: COc1cccc(CN(C)CC(=O)Nc2cccc(C(F)(F)F)c2)c1OC

- IC50 [12]: 0.668 µM (not active)
Compound: CC1=CC2=NC(=O)/C(=C\c3cccn3CCOc3cc(C)cc(C)c3)C(=N)N2O1

- IC50 [12]: 12.6 µM (not active)
Compound: COc1ccc(C(=O)CSc2nc(C(C)(C)C)nc3ccccc23)cc1

- IC50 [7]: > 100 µM (inactive)
Compound: O=C(NCC(=O)N1CCOCC1)c1ccc(Cl)c(Cl)c1

- AC50 [21]: 31.6 µM (inconclusive)
- AC50 [13]: inconclusive
Compound: CCCN(CCC)CCCNS(=O)(=O)c1cc(Br)cc2c1N(C(C)=O)CC2

- AC50 [20]: 12.6 µM (inconclusive)
- AC50 [21]: 11.2 µM (inconclusive)
- AC50 [13]: inconclusive
Compound: O=C(O/N=C\c1ccc(N2CCCCC2)c([N+](=O)[O-])c1)c1c(F)cccc1F

More lines, now with the values behind:

Compound: CC(=O)Nc1cccc(NC(=O)CSc2ncc(-c3ccc(Cl)cc3)n2Cc2ccco2)c1
- AC50 [1]: 4.95 µM (active)
- AC50 [2]: 60.2 µM (active)
- AC50 [3]: 10.7 µM (active)

Compound: CCCCOc1cccc(-c2cc(C(=O)NN=C(S)NCC)c3ccccc3n2)c1
- EC50 [4]: 111 µM (active)

Compound: CCCCOc1cccc(-c2cc(C(=O)NNC(=S)NCC)c3ccccc3n2)c1
- EC50 [5]: 2.3 µM (active)

Compound: COc1ccc(-n2c(C)nc3cc(C(=O)NCc4ccco4)ccc32)cc1
- IC50 [7]: > 100 µM (inactive)

Compound: COc1ccc(CC(=O)Nc2cccc(-c3nnc(-c4ccccc4)o3)c2)cc1OC
- EC50 [8]: 69.6 µM (active)
- EC50 [9]: > 350 µM (not active)
- EC50 [10]: > 350 µM (not active)
- EC50 [11]: 25.4 µM (active)

Compound: CCC(=O)N1CCN(c2nc3ccc(Br)cc3s2)CC1
- IC50 [7]: 58.6 µM (inactive)
- EC50 [9]: 144 µM (active)
- EC50 [10]: > 350 µM (not active)

Compound: O=C(CCc1ccccc1)NC1CCSC1=O (stereo not drawn)
- IC50 [7]: > 100 µM (inactive)

Compound: O=C(NCc1cccc(Cl)c1)c1cc(COc2ccc3ncccc3c2)on1
- AC50 [1]: 3.05 µM (active)
- AC50 [2]: 38.7 µM (active)
- AC50 [3]: 14.8 µM (active)

Compound: CCn1ccnc1C(O)c1ccccc1OC (stereo not drawn)
- EC50 [9]: > 350 µM (not active)
- EC50 [10]: > 350 µM (not active)

Compound: Cc1ccc(C(=O)CCC(=O)Nc2cccc(C(F)(F)F)c2)cc1
- EC50 [5]: > 112 µM (not active)
- EC50 [4]: > 112 µM (not active)

Compound: Cc1ccc(CNC(=O)CCNS(=O)(=O)c2ccc3c(c2)c(=O)n(C)c(=O)n3C)cc1
- AC50 [13]: inconclusive

Compound: Cc1ccc2c(c1)C(CCN)C(=O)N2Cc1ccccc1 (stereo not drawn)
- EC50 [5]: > 112 µM (not active)
- EC50 [4]: > 112 µM (not active)

Compound: Cc1cc2ncn(S(=O)(=O)N3CCCCC3)c2cc1C
- AC50 [15]: 5.54 µM (active)
- AC50 [16]: 60.6 µM (active)

Compound: c1c2c(cc3sc(N4CCOCC4)nc13)OCCO2
- EC50 [5]: 11.4 µM (active)
- EC50 [4]: 3.56 µM (active)

Compound: O=S(=O)(Cc1ccccc1)NCC1CCCN(Cc2ccc(F)c(F)c2)C1 (stereo not drawn)
- IC50 [12]: 17.6 µM (not active)
- EC50 [17]: 0.199 µM (active)
- EC50 [18]: > 60 µM (not active)

Compound: COC(=O)CN1C(=O)[C@H]2[C@@H](c3ccc(C)o3)N3C(=O)CN(CC4CC4)C(=O)[C@@]3(Cc3ccccc3)[C@H]2C1=O
- EC50 [9]: > 350 µM (not active)
- EC50 [10]: > 350 µM (not active)

Compound: C=CCOC(=O)C(C#N)c1nc2ccccc2nc1N1CCN(Cc2ccc3c(c2)OCO3)CC1 (stereo not drawn)
- EC50 [17]: 1.18 µM (active)
- EC50 [18]: > 60 µM (not active)
- EC50 [5]: 69.2 µM (active)
- EC50 [4]: > 112 µM (not active)

Compound: COc1ccc(CNC(C)C2COc3ccccc3O2)c(OC)c1 (stereo not drawn)
- IC50 [7]: > 100 µM (inactive)

Compound: Cc1cccc(Cn2c(NCCO)nc3c2c(=O)n(C)c(=O)n3C)c1
- AC50 [1]: 0.528 µM (active)
- AC50 [2]: 2.83 µM (active)
- AC50 [3]: 2.12 µM (active)

Compound: O=C(NNC(=O)C1CCN(S(=O)(=O)c2ccc(Cl)cc2)CC1)c1ccc(Cl)cc1
- AC50 [20]: 3.55 µM (inconclusive)
- AC50 [13]: inconclusive

Compound: O=S(=O)(c1ccccc1)N1CCCCC1c1cccnc1 (stereo not drawn)
- AC50 [13]: inconclusive

Compound: Cc1[nH]c2ccccc2c1/C=N/NC(=S)NCc1ccccc1
- IC50 [12]: 15.1 µM (not active)

Compound: COc1cc(N/N=C/c2ccc(N(C)C)cc2)ncn1
- EC50 [5]: 2.9 µM (active)
- EC50 [4]: 0.989 µM (active)

Compound: CC(=O)Nc1ccc(S(=O)(=O)c2ccc(N)cc2)cc1 [MONO-N-ACETYL DAPSONE]
- AC50 [13]: inconclusive
